Assay results from PubChem BioAssay (NCI).
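In this assay, cells in 96-well plates receive the compound at five concentrations for 48 hours. Endpoints are linearly interpolated between the surrounding concentrations. Here, GI50 denotes the concentration required for 50% inhibition of growth. TGI marks complete inhibition of growth.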

Tests used:
Assay in all cases: growth of human tumour cells (NCI), 48 h
[1] = test system: 786-0 renal
[2] = test system: A498 renal
[3] = test system: A549 NSCLC
[4] = test system: ACHN renal
[5] = test system: BT-549 breast
[6] = test system: CCRF-CEM leukemia
[7] = test system: COLO 205 colon
[8] = test system: DU-145 prostate
[9] = test system: EKVX NSCLC
[10] = test system: HCC-2998 colon
[11] = test system: HCT-116 colon
[12] = test system: HCT-15 colon
[13] = test system: HL-60(TB) leukemia
[14] = test system: HOP-62 NSCLC
[15] = test system: HOP-92 NSCLC
[16] = test system: HS 578T breast
[17] = test system: HT29 colon
[18] = test system: IGROV1 ovarian
[19] = test system: K-562 leukemia
[20] = test system: KM12 colon
[21] = test system: LOX IMVI melanoma
[22] = test system: M14 melanoma
[23] = test system: MALME-3M melanoma
[24] = test system: MCF7 breast
[25] = test system: MDA-MB-231 breast
[26] = test system: MDA-MB-435
[27] = test system: MOLT-4 leukemia
[28] = test system: NCI-H226 lung
[29] = test system: NCI-H23 lung
[30] = test system: NCI-H460 lung
[31] = test system: NCI-H522 lung
[32] = test system: NCI/ADR-RES ovarian
[33] = test system: OVCAR-3 ovarian
[34] = test system: OVCAR-4 ovarian
[35] = test system: OVCAR-5 ovarian
[36] = test system: OVCAR-8 ovarian
[37] = test system: PC-3 prostate
[38] = test system: RPMI-8226 leukemia
[39] = test system: RXF 393 renal
[40] = test system: SF-268 CNS
[41] = test system: SF-295 CNS
[42] = test system: SF-539 CNS
[43] = test system: SK-MEL-2 melanoma
[44] = test system: SK-MEL-28 melanoma
[45] = test system: SK-MEL-5 melanoma
[46] = test system: SK-OV-3 ovarian
[47] = test system: SN12C renal
[48] = test system: SNB-19 CNS
[49] = test system: SNB-75 CNS
[50] = test system: SR leukemia
[51] = test system: SW-620 colon
[52] = test system: T-47D breast
[53] = test system: TK-10 renal
[54] = test system: U251 CNS
[55] = test system: UACC-257 melanoma
[56] = test system: UACC-62 melanoma
[57] = test system: UO-31 renal

**Q.** Which results are given for `O=C(C1CC1)N1CC[C@@H](Cc2n[nH]c(=O)n2-c2ccc(-c3ccc4occc4c3)cc2)C1`?
**A.** GI50 [1]: 12.3 µM; TGI [1]: > 100 µM; GI50 [2]: 15 µM; TGI [2]: > 85.4 µM; GI50 [3]: 16.9 µM; TGI [3]: > 100 µM; GI50 [4]: 11.8 µM; TGI [4]: 54.8 µM; GI50 [5]: 1.65 µM; TGI [5]: 48.7 µM; GI50 [6]: 15.6 µM; TGI [6]: > 100 µM; GI50 [7]: 15 µM; TGI [7]: 72.5 µM; GI50 [8]: 23.4 µM; TGI [8]: > 100 µM; GI50 [9]: 12.6 µM; TGI [9]: > 100 µM; GI50 [10]: 33.9 µM; TGI [10]: > 100 µM; GI50 [11]: 14.3 µM; TGI [11]: 84 µM; GI50 [12]: 11.2 µM; TGI [12]: > 100 µM; GI50 [13]: 0.131 µM; TGI [13]: > 44.4 µM; GI50 [14]: 23.4 µM; TGI [14]: > 100 µM; GI50 [15]: 24.4 µM; TGI [15]: > 100 µM; GI50 [16]: 21.3 µM; TGI [16]: > 100 µM; GI50 [17]: 7.51 µM; TGI [17]: > 81.1 µM; GI50 [18]: 21.2 µM; TGI [18]: > 100 µM; GI50 [19]: 8.18 µM; TGI [19]: > 100 µM; GI50 [20]: 17.6 µM; TGI [20]: > 100 µM; GI50 [21]: 10.3 µM; TGI [21]: 51.3 µM; GI50 [22]: 17.2 µM; TGI [22]: > 100 µM; GI50 [23]: 22.4 µM; TGI [23]: > 87.8 µM; GI50 [24]: 1.62 µM; TGI [24]: > 100 µM; GI50 [25]: 20.4 µM; TGI [25]: > 100 µM; GI50 [26]: 14.8 µM; TGI [26]: > 87.6 µM; GI50 [27]: 6.09 µM; TGI [27]: > 88.5 µM; GI50 [28]: 19.6 µM; TGI [28]: > 100 µM; GI50 [29]: 39.1 µM; TGI [29]: > 100 µM; GI50 [30]: 3.2 µM; TGI [30]: > 100 µM; GI50 [31]: 20.9 µM; TGI [31]: > 92 µM; GI50 [32]: 30.8 µM; TGI [32]: > 100 µM; GI50 [33]: 15.8 µM; TGI [33]: > 73.7 µM; GI50 [34]: 9.02 µM; TGI [34]: > 94.5 µM; GI50 [35]: 42.5 µM; TGI [35]: > 100 µM; GI50 [36]: 25.3 µM; TGI [36]: > 100 µM; GI50 [37]: 23.2 µM; TGI [37]: > 100 µM; GI50 [38]: 2.82 µM; TGI [38]: > 75.4 µM; GI50 [39]: 24.2 µM; TGI [39]: > 100 µM; GI50 [40]: 12.4 µM; TGI [40]: > 100 µM; GI50 [41]: 11.5 µM; TGI [41]: > 100 µM; GI50 [42]: 8.16 µM; TGI [42]: > 100 µM; GI50 [43]: 21.5 µM; TGI [43]: 70.3 µM; GI50 [44]: 32 µM; TGI [44]: > 100 µM; GI50 [45]: 12 µM; TGI [45]: 33.6 µM; GI50 [46]: 25.4 µM; TGI [46]: > 100 µM; GI50 [47]: 23.2 µM; TGI [47]: > 100 µM; GI50 [48]: 17 µM; TGI [48]: > 100 µM; GI50 [49]: 13.7 µM; TGI [49]: > 94.1 µM; GI50 [50]: 23.9 µM; TGI [50]: > 100 µM; GI50 [51]: 27.6 µM; TGI [51]: > 100 µM; GI50 [52]: 18 µM; TGI [52]: > 96.5 µM; GI50 [53]: 28.3 µM; TGI [53]: > 100 µM; GI50 [54]: 25.4 µM; TGI [54]: > 100 µM; GI50 [55]: 29 µM; TGI [55]: > 96.6 µM; GI50 [56]: 21.1 µM; TGI [56]: > 100 µM; GI50 [57]: 1.91 µM; TGI [57]: 65.4 µM
